According to patent US12162879B2, “Pyridopyrimidine derivative, preparation method therefor and medical use thereof” (Jiangsu Hengrui Medicine Co., Ltd., priority 2018, dated 2024):

Legend:
Assay type in all cases: cell-based
[1] = target: hERG potassium channel (Homo sapiens (Human), UniProt Q12809); assay: Blocking effect on hERG potassium current, automatic patch clamp (Patchliner) on HEK293-hERG stable cell line
Description: The blocking effect of the compounds of the present application on hERG potassium current was determined using an automatic patch-clamp on a stable cell line transfected with hERG potassium channels.
The HEK293 cell line was transfected with pCDNA3.1(+) that had constructed the hERG gene. The monoclonal HEK293-hERG stable cell line was screened by adding G418. The HEK293-hERG stable cell line was subcultured at a density of 1:4 in MEM/EBSS medium (10% FBS, 400 μg/mL G418, 1% MEM non-essential amino acid solution (100×), 1% sodium pyruvate solution) and cultured within 48 to 72 hours for the automatic patch clamp experiment. On the day of the experiment, the cells were digested with 0.25% trypsin (life technologies, 12563-029), collected by centrifugation and resuspended with extracellular fluid (140 mM NaCl, 4 mM KCl, 1 mM MgCl2, 2 mM CaCl2, 5 mM MD glucose monohydrate, 10 mM HEPES, pH 7.4, 298 mOsmol) to obtain a cell suspension. The cell suspension was placed on the cell bank of the Patchliner instrument, the Patchliner instrument used a negative pressure controller to apply the cells to the chip (NPC-16), and the negative pressure attracted individual cells to the wells of the chip. When the whole cell mode was formed, the instrument got the hERG current according to the set hERG current-voltage program, and then the instrument automatically perfused the compound from low to high concentration. The currents at each concentration of the compound and the blank control current were analyzed by the HEAK EPC 10 patch clamp amplifier (Nanion), Pathlinersoftware and data analysis software provided by Pathcontrol HTsoftware.

[2] = tested on: peripheral blood mononuclear cells (PBMC); assay: Stimulation of IFNγ secretion from PBMC; conditions: minimum effective concentration, human PBMC, 24 hours
Description: The stimulating effect of the compounds of the present invention on the ability of secretion of IL12 and IFN γ from PBMC was determined by the following experimental method.
• 1. RMPI 1640 (Invitrogen, 11875); • 2. FBS (Gibco, 10099-141); • 3. Ficoll-Paque PREMIUM (GE, 17-5442-02); • 4. Trypan blue solution (Sigma, T8154-100 ML); • 5. SepMate™-50 (Stemcell, 15460); • 6. Bright-LineIM blood cell counter (Sigma, Z359629-1EA); • 7. 96-well cell culture plate (Corning, 3599); • 8. 96-well v-bottom plate (Corning, 3894); • 9. Human IL-12 ELISA kit (Neobioscience Technology Co., EHC152.96); • 10. Human IFN γ kit (cisbio, 62HIFNGPEG); and • 11. PHERAStar multi-function microplate reader (BMG, PHERAStar). II. Experimental Procedures
The compound was diluted with pure DMSO to a maximum concentration of 5 mM, and a total of 9 points were obtained by a 4-fold gradient dilution. 4 μl of the compound solution was then added to 196 μl of RMPI 1640 medium containing 10% FBS and mixed well. 50 μl of the mixture was taken and added to a 96-well cell culture plate.
All reagents were equilibrated to room temperature. 60 ml of blood from a healthy human and the same volume of PBS (containing 2% FBS) were added to a 250 ml culture flask, gently pipetted, mixed well and diluted. 15 ml of lymphocyte separation solution Ficoll-Paque PREMIUM was added to a 50 ml PBMC centrifuge tube SepMate™-50, followed by the addition of 30 ml of the above diluted blood. The mixture was centrifuged at 1200 g for 10 minutes at room temperature. The supernatant was taken and then centrifuged at 300 g for 8 minutes. The cells were re-suspended in the RMPI 1640 medium containing 10% FBS and counted, and the number of PBMCs was adjusted to 3.33×10^6 cells/ml. 150 μl of the cell solution was added to the plate containing the compounds, and incubated in an incubator at 37° C., 5.0% CO2 for 24 hours. The cell culture plate was placed in a centrifuge, and centrifuged at 1200 rpm for 10 minutes at room temperature. 150 μl of the supernatant was taken from each well.
The reagents in the Human IFN γ test kit were equilibrated to room temperature. The standard and detection antibody were prepared according to the kit's instruction under dark conditions. 16 μl of the supernatant obtained by centrifugation was added to each well, and 4 μl of freshly prepared mixed detection antibody was added to each well. The solution was mixed well by shaking, and incubated overnight in the dark at room temperature. The plate was read by the PHERAStar multi-function microplate reader.
The concentration of the compound that can stimulate PBMC to produce […] that is 3 times higher than the average value of the group without the compound (SD of the group without the compound) was defined as the minimum effective concentration (MEC) value of the compound.

[3] = target: human TLR8 (Homo sapiens (Human), UniProt Q9NR97); assay: Agonist activity on human TLR8 in HEK-Blue hTLR8 stably transfected cells; conditions: 16 hours, OD 620 nm
Chain of human TLR8 (Q9NR97 27-1041): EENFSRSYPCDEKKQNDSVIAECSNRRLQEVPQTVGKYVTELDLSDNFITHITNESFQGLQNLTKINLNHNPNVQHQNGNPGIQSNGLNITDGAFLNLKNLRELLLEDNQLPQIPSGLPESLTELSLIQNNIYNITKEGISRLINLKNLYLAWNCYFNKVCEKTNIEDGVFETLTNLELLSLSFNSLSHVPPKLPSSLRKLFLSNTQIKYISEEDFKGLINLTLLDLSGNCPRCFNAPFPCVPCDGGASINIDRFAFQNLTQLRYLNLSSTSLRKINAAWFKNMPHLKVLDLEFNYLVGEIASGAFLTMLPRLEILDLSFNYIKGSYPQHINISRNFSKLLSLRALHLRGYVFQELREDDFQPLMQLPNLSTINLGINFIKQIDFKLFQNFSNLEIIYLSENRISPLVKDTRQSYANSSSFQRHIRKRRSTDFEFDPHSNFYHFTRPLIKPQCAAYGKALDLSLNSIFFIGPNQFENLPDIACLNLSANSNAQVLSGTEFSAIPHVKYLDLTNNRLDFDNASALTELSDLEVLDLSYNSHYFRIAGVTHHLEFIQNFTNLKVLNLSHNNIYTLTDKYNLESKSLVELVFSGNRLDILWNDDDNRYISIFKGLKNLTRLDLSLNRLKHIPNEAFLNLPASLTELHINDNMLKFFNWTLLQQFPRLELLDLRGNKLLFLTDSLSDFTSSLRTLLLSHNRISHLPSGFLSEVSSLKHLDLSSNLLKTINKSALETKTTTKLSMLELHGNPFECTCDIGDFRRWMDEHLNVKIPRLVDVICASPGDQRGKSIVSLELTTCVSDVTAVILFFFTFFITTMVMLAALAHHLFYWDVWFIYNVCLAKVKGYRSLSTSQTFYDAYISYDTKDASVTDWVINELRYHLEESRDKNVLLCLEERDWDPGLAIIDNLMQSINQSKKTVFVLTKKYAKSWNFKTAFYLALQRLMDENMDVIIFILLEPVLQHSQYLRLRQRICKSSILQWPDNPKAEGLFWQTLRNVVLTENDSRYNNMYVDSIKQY
Description: The agonist effect of the compounds of the present invention on hTLR8 expressed by the HEK-Blue™ hTLR8 stably transfected cells was determined by the following experimental method.
• 1. DMEM(Gibco, 10564-029); • 2. Fetal bovine serum (GIBCO, 10099); • 3. Trypan blue solution (Sigma, T8154-100 ML); • 4. Flexstation 3 multi-function microplate reader (Molecular Devices); • 5. HEK-Blue™ hTLR8 cell line (InvivoGen, hkb-hTLR8), or HEK-Blue™ hTLR7 cell line (InvivoGen, hkb-hTLR7); • 6. HEK-Blue detection reagent (InvivoGen, hb-det3); and • 7. Phosphate buffer solution (PBS) pH 7.4 (Shanghai Basalmedia Technologies Co., Ltd., B320). II. Experimental Procedures a. Determination of Agonist Activity on Human TLR8
A bag of HEK-Blue detection dry powder was dissolved in 50 ml of water free of endotoxin, and the solution was then placed in an incubator at 37° C. for 10 minutes followed by sterile filtration to prepare a HEK-Blue detection medium. The compound was firstly formulated into a 20 mM stock solution, then diluted with pure DMSO to a maximum concentration of 6×10^6 nM, and a total of 10 points were obtained by a 3-fold gradient dilution. The above formulated compound was firstly diluted 20-fold with the medium, then 20 μl of the diluted compound was added to each well.
The supernate was removed from the HEK-Blue™ hTLR8 cells, to which 2-5 ml of pre-warmed PBS was then added. The cells were placed in an incubator for 1-2 minutes, gently pipetted, and counted by trypan blue staining. The cells were re-suspended in the HEK-Blue detection medium to adjust the concentration to 2.2×10^5 cells/ml. 180 μl of cells was added to the above 96-well plate comprising 20 μl of the compound, and incubated at 37° C. for 16 hours.
The corresponding OD values were obtained by a microplate reader at a wavelength of 620 nm, and the EC50 values of the compounds were calculated by Graphpad Prism.

Chain of hERG potassium channel (Q12809 whole entry): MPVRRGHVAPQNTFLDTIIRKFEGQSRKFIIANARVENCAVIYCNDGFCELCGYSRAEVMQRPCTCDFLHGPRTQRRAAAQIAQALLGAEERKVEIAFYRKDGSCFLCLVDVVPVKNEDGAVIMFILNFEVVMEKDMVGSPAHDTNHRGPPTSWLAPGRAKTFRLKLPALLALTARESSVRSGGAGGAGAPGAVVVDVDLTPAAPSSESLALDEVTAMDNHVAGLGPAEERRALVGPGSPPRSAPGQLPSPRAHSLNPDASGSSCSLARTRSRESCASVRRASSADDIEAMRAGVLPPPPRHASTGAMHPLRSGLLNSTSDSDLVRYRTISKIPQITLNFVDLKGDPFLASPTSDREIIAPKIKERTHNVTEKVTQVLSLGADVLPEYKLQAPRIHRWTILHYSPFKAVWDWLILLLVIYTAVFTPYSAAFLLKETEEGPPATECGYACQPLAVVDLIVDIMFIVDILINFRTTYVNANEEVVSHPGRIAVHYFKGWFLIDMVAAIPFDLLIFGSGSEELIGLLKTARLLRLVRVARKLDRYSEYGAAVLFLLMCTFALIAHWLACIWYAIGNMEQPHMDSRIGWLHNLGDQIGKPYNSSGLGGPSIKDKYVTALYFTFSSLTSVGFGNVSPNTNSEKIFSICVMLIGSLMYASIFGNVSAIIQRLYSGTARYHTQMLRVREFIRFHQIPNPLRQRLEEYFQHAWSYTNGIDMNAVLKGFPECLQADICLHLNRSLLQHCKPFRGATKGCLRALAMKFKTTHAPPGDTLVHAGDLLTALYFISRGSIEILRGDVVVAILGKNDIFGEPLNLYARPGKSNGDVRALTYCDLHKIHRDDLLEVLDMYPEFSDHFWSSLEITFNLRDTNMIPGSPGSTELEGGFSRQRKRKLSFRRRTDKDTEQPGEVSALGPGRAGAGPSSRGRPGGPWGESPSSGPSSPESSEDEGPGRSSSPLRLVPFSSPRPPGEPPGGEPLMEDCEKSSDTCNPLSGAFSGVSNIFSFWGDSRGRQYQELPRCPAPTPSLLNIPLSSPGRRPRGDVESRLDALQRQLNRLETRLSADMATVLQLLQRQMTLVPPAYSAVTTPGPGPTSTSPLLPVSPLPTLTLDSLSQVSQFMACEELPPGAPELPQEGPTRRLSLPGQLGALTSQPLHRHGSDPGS

Row | SMILES | IC50 [1] | IFNγ MEC [2] | EC50 [3] | Emax [3]
1 | CCCC[C@](C)(CO)Nc1nc(N)nc2cc(-c3ccc(CN4CCCC4)nc3)cnc12 [Example 2, (R)-2-((2-Amino-7-(6-(pyrrolidin-1-ylmethyl)pyridin-3-yl)pyrido[3,2-d]pyrimidin-4-yl)amino)-2-methylhexan-1-ol] | 7000 nM | 24 nM | 80 nM | 106%
2 | CCCC[C@](C)(CO)Nc1nc(N)nc2cc(-c3ccc(C4CCN(C)CC4)nc3)cnc12 [Example 4, (R)-2-((2-Amino-7-(6-(1-methylpiperidin-4-yl)pyridin-3-yl)pyrido[3,2-d]pyrimidin-4-yl)amino)-2-methylhexan-1-ol] | 14000 nM | 33 nM | 100 nM | 97%
3 | CCCCC(C)(CO)Nc1nc(N)nc2cc(-c3ccc(CN4CCN(C)CC4)nc3)cnc12 (centres unmarked) [Example 5, 2-((2-Amino-7-(6-((4-methylpiperazin-1-yl)methyl)pyridin-3-yl)pyrido[3,2-d]pyrimidin-4-yl)amino)-2-methylhexan-1-ol] | 17000 nM |  | 270 nM | 110%
4 | CCCC[C@](C)(CO)Nc1nc(N)nc2cc(-c3ccc(CN4CCN(C)CC4)nc3)cnc12 [Example 6, (R)-2-((2-Amino-7-(6-((4-methylpiperazin-1-yl)methyl)pyridin-3-yl)pyrido[3,2-d]pyrimidin-4-yl)amino)-2-methylhexan-1-ol] | 26000 nM |  | 100 nM | 107%
5 | CCCC[C@](C)(CO)Nc1nc(N)nc2cc(-c3cnc(C4CCN(C)CC4)nc3)cnc12 [Example 8, (R)-2-((2-Amino-7-(2-(1-methylpiperidin-4-yl)pyrimidin-5-yl)pyrido[3,2-d]pyrimidin-4-yl)amino)-2-methylhexan-1-ol] | > 30000 nM |  | 40 nM | 114%
